# Data taken from US11136315B2, “CXCR2 antagonist” (MEDSHINE DISCOVERY INC., priority 2018, dated 2021).
# Key:
# [1] = Pharmacokinetic evaluation in C57BL/6 mice; assay type: in vivo; settings: male, mouse, plasma; for clearance / half-life / AUC: intravenous 1 mpk / gavage 5 mpk study; for half-life: read-out: Half-life T1/2 (converted); for AUC: route not stated, unit printed shifted under first column, read-out: Area under the drug concentration time curve (AUC); for bioavailability: po, 5 mg/kg, gavage 5 mpk vs intravenous 1 mpk, read-out: Bioavailability (F)
# Method: The pharmacokinetic parameters of the compounds in C57BL/6 mice were investigated.
# C57BL/6 mice (male, 18-30 g, 7-9 weeks old, Shanghai Lingchang Biotechnology Co., Ltd.)
# Formulations containing an aqueous solution of 1% DMSO/10% hydroxypropyl-β-cyclodextrin as the vehicle were administered by intravenous injection (1 mpk), formulations containing an aqueous solution of 1% DMSO/1% hydroxypropyl methylcellulose/0.2% Tween 80 as the vehicle were administered by gavage (5 mpk). Before the animal experiment, all animals were fasted, and fed 4 hours after administration; all animals were free to drink water. The time points of blood collection: intravenous injection administration group: 0.083, 0.25, 0.5, 1, 2, 4, 6, 8 and 24 hours; gavage administration group: 0.25, 0.5, 1, 2, 4, 6, 8 and 24 hours.
# (§1) Whole blood samples (0.03 mL) were collected through the saphenous vein (or other suitable blood collection sites) at the prescribed time points, and all blood samples were added to labeled plastic centrifuge tubes containing K2-EDTA anticoagulant. After the blood samples were collected, the plasma was isolated by centrifugation, immediately placed in dry ice and stored at low temperature. All samples were analyzed by LC-MS/MS with a minimum detection limit of 2 nM. The non-compartmental model of WinNonlin™ Version 6.3 (Pharsight, Mountain View, Calif.) pharmacokinetic software was used to process the mean plasma concentration, and the linear-log trapezoid method was used to calculate the pharmacokinetic parameters.
# [2] = target: CXCR2 (Homo sapiens (Human), UniProt P25025); assay: PathHunter CXCR2 β-arrestin cell assay, antagonism of CXCL8 (EC80); assay type: cell-based; settings: PathHunter CXCR2 β-arrestin cells, CXCL8 agonist at EC80
# Method: The IC50 values were determined to evaluate the antagonistic activity of the test compounds against CXCR2.
# PathHunter® CXCR2 β-arrestin cells (DiscoverX) were grown under normal conditions and seeded on a white-walled 384-microwell plate at 20 μL/well. Before testing, the cells were incubated at 37° C. for an appropriate time. The test compounds were serially diluted in DMSO at a three-fold dilution factor to obtain 8 serially diluted test compounds. Shortly before the test, the above serially diluted test compounds were further diluted with test buffer to 5 times the test concentration. 5 μL of the further diluted test compounds was added to the cells and then the cells were incubated at 37° C. for 30 minutes. The vehicle concentration was 1%. 5 μL of 6×EC80 agonist (CXCL8) buffer was added to the cells and then the cells were incubated at 37° C. for 90 minutes. 15 μL (50% v/v) of PathHunter detection reagent mixture was added in one portion, followed by one-hour incubation to generate the test signal. The microplates were read on a PerkinElmer Envision™ instrument for chemiluminescence signal. The biological activity of the test compounds was analyzed by CBIS data analysis suite (ChemInnovation, CA) and shown as IC50 values.
# [3] = Pharmacokinetic and tissue distribution in Lewis rats; assay type: in vivo; settings: male, rat, lung / plasma, oral, 5 mg/kg, gavage 5 mpk, read-out: Ratio in lung blood
# Method: The pharmacokinetic and tissue distribution of the compounds in Lewis rats was tested.
# Lewis rats (male, 202-239 g, 7-9 weeks old, Beijing Viton Lihua)
# Formulations containing an aqueous solution of 1% hydroxypropyl methylcellulose/0.2% Tween 80 as the vehicle were administered by gavage (5 mpk). Before the animal experiment, all animals were fasted overnight, and fed 4 hours after administration; all animals were free to drink water. The time points of blood collection: danirixin administration group: 0.25, 1, 8 hours; gavage administration group: 0.5, 1, 4 hours.
# as §1, with “(0.2” for “(0.03”, “separated” for “isolated”, “log-linear” for “linear-log”
# [4] = test system: PPE-induced COPD model; assay: Therapeutic effect on PPE-induced COPD model, flow cytometry of inflammatory cells; assay type: in vivo, C57BL/6 mice; settings: PPE-induced mouse COPD model, daily gavage 4 weeks, high dose (120 mpk)
# Method: The therapeutic effect of the compounds on PPE-induced COPD model in C57BL/6 mice was tested. Animals: C57BL/6 mice (female, 17.5-18.5 g, 6-8 weeks old) Drugs: Porcine pancreas elastase (PPE) (sigma, 0.068 U/μL); compound 1 in FIG. 1, FIG. 2 and FIG. 3 is danirixin; compound 2 is WX006A. Grouping: (1) COPD model group (porcine pancreatic elastase model group) • (2) PPE+ danirixin (40 mpk) • (3) PPE+ danirixin (120 mpk) • (4) PPE+WX006A (4 mpk) • (5) PPE+WX006A (12 mpk) 1. Modeling method: PPE was administered through by drip transfusion at the back of the tongue. 2. Administration method: an aqueous solution of 1% DMSO/1% hydroxypropyl methylcellulose/0.2% Tween 80 was used as the vehicle; the animals were daily administered with a volume of 200 μL/animal by gavage for 4 weeks. 3. End point of the experiment: On the 29th day, the mice were euthanized, samples were collected, and flow cytometry was performed. The blood, alveolar lavage fluid and lung tissue of the mice were collected after 4 weeks of administration to determine the percentage of inflammatory cells. 1) Alveolar lavage cells: the mice were euthanized. […] 3) The cells were counted and the cell suspensions were transferred into flow cytometry tubes. […] 5) After washing the cells, the percentage of neutrophils and monocytes in CD45^+ cells was determined using a flow cytometer.
# CXCR2, sequence (P25025 whole entry): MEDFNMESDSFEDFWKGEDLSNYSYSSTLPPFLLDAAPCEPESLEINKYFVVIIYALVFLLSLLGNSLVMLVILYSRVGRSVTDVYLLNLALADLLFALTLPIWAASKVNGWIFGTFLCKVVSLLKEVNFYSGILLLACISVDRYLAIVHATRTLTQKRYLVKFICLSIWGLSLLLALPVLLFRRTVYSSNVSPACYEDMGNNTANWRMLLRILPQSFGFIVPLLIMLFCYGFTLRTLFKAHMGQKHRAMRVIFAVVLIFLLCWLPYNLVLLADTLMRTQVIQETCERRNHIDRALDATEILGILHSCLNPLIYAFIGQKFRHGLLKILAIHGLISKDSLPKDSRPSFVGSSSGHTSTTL
SMILES,clearance [1] [mL/min/kg],half-life [1] [h],AUC [1] [µM·h],bioavailability [1] [%],IC50 [2] [nM],Kp [3],proportion of monocytes in the alveolar lavage fluid [4],proportion of neutrophils in the alveolar lavage fluid [4]
"O=C(Nc1ccc(Cl)c(S(=O)(=O)C2CC2)c1O)NC1CCCc2ccoc21 (single isomer, unassigned) [WX006A]",8.3,3.09,20.1,83.8,22,–,–,–
"O=C(Nc1ccc(Cl)c(S(=O)(=O)[C@H]2CCCNC2)c1O)NC1CCCc2ccoc21 (single isomer, unassigned) [WX013A]",30.8,2.21,4.44,75.5,14,–,–,–
"O=C(Nc1ccc(Cl)c(S(=O)(=O)[C@H]2CCCNC2)c1O)NC1CCCc2cc(C(F)(F)F)oc21 (single isomer, unassigned) [WX030B]",–,–,–,–,22,2.17,–,–
"Cc1c(F)cccc1NC(=O)Nc1ccc(Cl)c(S(=O)(=O)[C@H]2CCCNC2)c1O [Danirixin, danirixin, reference compound]",42.5,7.43,1.58,34.3,–,1.57,significant effect of reducing,significant effect of reducing
CC(C)S(=O)(=O)c1c(Cl)ccc(NC(=O)N[C@H]2CCCc3ccoc32)c1O [WX003A],11.2,2.22,12.7,70.3,17,–,–,–
O=C(Nc1ccc(Cl)c(S(=O)(=O)CC(F)(F)F)c1O)N[C@H]1CCCc2ccoc21 [WX012A],15.8,0.94,9.39,82.5,17,–,–,–
Cc1cc2c(o1)C(NC(=O)Nc1ccc(Cl)c(S(=O)(=O)C3CC3)c1O)CCC2 (centres unmarked) [WX033],–,–,–,–,6,–,–,–
CC(C)S(=O)(=O)c1c(Cl)ccc(NC(=O)NC2CCCc3cc(C(F)(F)F)oc32)c1O (centres unmarked) [WX034],–,–,–,–,55,–,–,–
CC1(C)NCCCC1S(=O)(=O)c1c(Cl)ccc(NC(=O)NC2CCCc3ccoc32)c1O (centres unmarked) [WX036],–,–,–,–,23,–,–,–
